Where a name gives a salt, the structure may show the parent alone.
How the values were obtained:
Target C = experiment: RT-qPCR splicing assay panel, Target C canonical junction (CJ) mRNA; type: cell-based, human; details: Homo sapiens; Table 5 panel; canonical junction qPCR; compound concentration having 50% response in CJ decrease; read-out: Target C IC50 (decrease in CJ mRNA levels)
Summary of the method: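 Canonical exon-exon junction transcript levels measured by one-step RT-qPCR of cell lysates, normalized to a housekeeping gene (GAPDH, GUSB or PPIA). Cells used were A673 or K562, exposed for 24 h to compound in 11-point, 3-fold series from 10 uM, with final DMSO at or below 0.25%.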

MYB = experiment: HiBiT protein abundance assay, MYB HiBiT K562 cell line; type: cell-based, human; details: HiBiT K562 cell line, 24 hours, top dose 10 μM; read-out: Effect on protein abundance, MYB (IC50 category)
Summary of the method: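 Tagged-protein abundance measured by split-NanoBiT luminescence after lysis, following 24 h compound exposure (37° C; 10 μM top, 3-fold, 10 points; DMSO ≤0.25%) of HiBiT knock-in K562 cells. Percent response vs DMSO and unmodified-cell controls; 4-parameter logistic interpolation at 50% gave IC50.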

SMILES	IC50 (Target C)	IC50 (MYB)
Cc1cn2cc(-c3ccc4c(=O)n(C5CCNCC5)ccc4c3)cc(C#N)c2n1 [Compound 560, 2-methyl-6-[1-oxo-2-(piperidin-4-yl)isoquinolin-6-yl]imidazo[1,2-a]pyridine-8-carbonitrile]	1 to 10 µM	0.1 to 1 µM
CCc1cn(C2CCNCC2)c(=O)c2c(F)cc(-c3cc(F)c4nc(C)cn4c3)cc12 [Compound 558, 4-ethyl-8-fluoro-6-{8-fluoro-2-methylimidazo[1,2-a]pyridin-6-yl}-2-(piperidin-4-yl)isoquinolin-1-one]	1 to 10 µM	0.1 to 1 µM
Cc1cn2nc(-c3cc4ncn(C5CCNCC5)c(=O)c4cc3F)cc(C)c2n1 [Compound 585, 7-{2,8-dimethylimidazo[1,2-b]pyridazin-6-yl}-6-fluoro-3-(piperidin-4-yl)quinazolin-4-one]	1 to 10 µM	1 to 10 µM
Cc1cn2nc(-c3ccc4c(=O)n(C5CCNCC5)ccc4c3)cc(CC(N)=O)c2n1 [Compound 528, 2-(2-methyl-6-(1-oxo-2-(piperidin-4-yl)-1,2-dihydroisoquinolin-6-yl)imidazo[1,2-b]pyridazin-8-yl) acetamide]	1 to 10 µM	1 to 10 µM
Cc1cn2nc(-c3cc(F)c4c(=O)n([C@H]5CCN(C)C6(CC6)C5)ncc4c3)cc(C)c2n1 [Compound 638]	< 0.1 µM	0.1 to 1 µM
Cc1cn2nc(-c3ccc4c(=O)n(C5CCNCC5)ncc4c3)cc(Oc3ccccc3)c2n1 [Compound 549, 6-(2-methyl-8-phenoxy-imidazo[1,2-b]pyridazin-6-yl)-2-(4-piperidyl) phthalazin-1-one]	0.1 to 1 µM	< 0.1 µM
Cc1cc(-c2cc(O)c3c(=O)n(C4CCNC5(CC5)C4)ncc3c2)cc2cn(C)nc12 (stereo not drawn) [Compound 561]	1 to 10 µM	0.1 to 1 µM
Cc1cn2cc(-c3cc(O)c4c(=O)n(C5CCNCC5)cnc4c3)cc(F)c2n1 [Compound 587, 7-{8-fluoro-2-methylimidazo[1,2-a]pyridin-6-yl}-5-hydroxy-3-(piperidin-4-yl)quinazolin-4-one]	0.1 to 1 µM	< 0.1 µM
Cc1cn2nc(-c3cc(F)c4c(=O)n(C5CCNC5)cnc4c3)cc(C)c2n1 (stereo not drawn) [Compound 589, 7-{2,8-dimethylimidazo[1,2-b]pyridazin-6-yl}-5-fluoro-3-(pyrrolidin-3-yl)quinazolin-4-one]	> 10 µM	1 to 10 µM
Cc1cn2nc(-c3ccc4c(=O)n(C5CCNCC5)ccc4c3)cc(Oc3ccc(F)cc3)c2n1 [Compound 546, 6-[8-(4-fluorophenoxy)-2-methyl-imidazo[1,2-b]pyridazin-6-yl]-2-(4-piperidyl) isoquinolin-1-one; hydrochloride]	< 0.1 µM	< 0.1 µM
Cc1cc(-c2ccc3c(=O)n(C4CC(C)(C)NC(C)(C)C4)cnc3n2)cc2cn(C)nc12 [Compound 179]	> 10 µM	> 10 µM
CN1CCN(c2ccc3c(=O)n(-c4ccc5cn(C)nc5c4)cnc3c2)CC1 [Compound 178]	> 10 µM	> 10 µM
Cc1cn2nc(-c3ccc4c(=O)n(C5CCNCC5)cnc4c3)cc(C)c2n1 [Compound 181]	0.1 to 1 µM	< 0.1 µM
Cc1nc2c(C)cc(-c3cc(F)c4c(=O)n(C5CCNC6(CC6)C5)ncc4c3)cc2o1 (stereo not drawn) [Compound 555]	0.1 to 1 µM	0.1 to 1 µM
CCOC(=O)c1cc(-c2ccc3c(=O)n(C4CCNCC4)ccc3c2)nn2cc(C)nc12 [Compound 529, ethyl 2-methyl-6-[1-oxo-2-(4-piperidyl)-6-isoquinolyl]imidazo[1,2-b]pyridazine-8-carboxylate]	1 to 10 µM	0.1 to 1 µM
Cc1cn2nc(-c3cc(F)c4c(=O)n(C5CCNCC5)ncc4c3)cc(C)c2n1 [Compound 540]	< 0.1 µM	< 0.1 µM
Cc1cn2nc(-c3ccc4c(=O)n(C5CCNCC5)ccc4c3)cc(Cc3nnc[nH]3)c2n1 [Compound 535, 6-[2-methyl-8-(4H-1,2,4-triazol-3-ylmethyl)imidazo[1,2-b]pyridazin-6-yl]-2-(4-piperidyl) isoquinolin-1-one]	> 10 µM	1 to 10 µM
Cc1cn2nc(-c3ccc4c(=O)n(C5CCN(C)CC5)cnc4c3)cc(C)c2n1 [Compound 176]	1 to 10 µM	0.1 to 1 µM
Cn1ccc2c(cnn2-c2ccc3c(=O)n(C4CCNCC4)ccc3c2)c1=O [Compound 521]	1 to 10 µM	1 to 10 µM
Cc1cn2nc(-c3cc(F)c4c(=O)n([C@@H]5CCN(C)C6(CC6)C5)ncc4c3)cc(C)c2n1 [Compound 637]	< 0.1 µM	< 0.1 µM

SMILES	IC50 (Target C)	IC50 (MYB)
Cc1cc(-c2cc(F)c3c(=O)n(C4CCNC5(CC5)C4)ncc3c2)cc2cn(C)nc12 (stereo not drawn) [Compound 554]	0.1 to 1 µM	0.1 to 1 µM
Cc1cn2nc(-c3ccc4c(=O)n(C5CCNCC5)ccc4c3)cc(OCc3ccccc3)c2n1 [Compound 526, 6-(8-benzyloxy-2-methyl-imidazo[1,2-b]pyridazin-6-yl)-2-(4-piperidyl) isoquinolin-1-one]	1 to 10 µM	< 0.1 µM
Cc1cn2nc(-c3cc4ccn([C@@H]5CCNC5)c(=O)c4cc3O)cc(C)c2n1 [Compound 640, 6-(2,8-dimethylimidazo[1,2-b]pyridazin-6-yl)-7-hydroxy-2-[(3R)-pyrrolidin-3-yl]isoquinolin-1-one]	1 to 10 µM	< 0.1 µM
Cn1ccc2nn(-c3ccc4c(=O)n(C5CCNCC5)ccc4c3)cc2c1=O [Compound 522, 6-{5-methyl-4-oxopyrazolo[4,3-c]pyridin-2-yl}-2-(piperidin-4-yl)isoquinolin-1-one]	> 10 µM	1 to 10 µM
Cc1cn2nc(-c3cc(F)c4c(=O)n(C5CCNCC5)ncc4c3)cc(Oc3ccccc3)c2n1 [Compound 548, 8-fluoro-6-(2-methyl-8-phenoxy-imidazo[1,2-b]pyridazin-6-yl)-2-(4-piperidyl)phthala-zin-1-one]	< 0.1 µM	< 0.1 µM
Cc1cn2nc(-c3cc(N)c4c(=O)n([C@H]5CCNC5)ccc4c3)cc(C)c2n1 [Compound 645, 8-amino-6-(2,8-dimethylimidazo[1,2-b]pyridazin-6-yl)-2-[(3S)-pyrrolidin-3-yl]isoquinolin-1-one]	> 10 µM	1 to 10 µM
Cc1cn2nc(-c3cc(O)c4c(=O)n(C5CCNCC5)ncc4c3)cc(C)c2n1 [Compound 541]	< 0.1 µM	< 0.1 µM
CCN1CCC(n2ncc3cc(-c4cc(C)c5nc(C)cn5n4)cc(O)c3c2=O)CC1 [Compound 542]	0.1 to 1 µM	< 0.1 µM
Cc1cc(-c2ccc3c(=O)n(C4CCNC5(CC5)C4)ncc3c2)cc2cn(C)nc12 (stereo not drawn) [Compound 512]	1 to 10 µM	1 to 10 µM
Cc1cn2cc(-c3cc(F)c4c(=O)n([C@H]5CNC[C@H]5C)ccc4c3)cc(F)c2n1 [Compound 652, 8-fluoro-6-(8-fluoro-2-methyl-imidazo[1,2-a]pyridin-6-yl)-2-[(3R,4R)-4-methylpyrrolidin-3-yl]isoquinolin-1-one]	> 10 µM	1 to 10 µM
Cc1cn2cc(-c3cc(F)c4c(=O)n(C5CCNC6(CC6)C5)ncc4c3)cc(Cl)c2n1 (stereo not drawn) [Compound 556]	1 to 10 µM	0.1 to 1 µM
Cc1cn2cc(-c3cc(O)c4c(=O)n(C5CCNC6(CC6)C5)ncc4c3)cc(Cl)c2n1 (stereo not drawn) [Compound 557]	1 to 10 µM	0.1 to 1 µM
Cc1cc(-c2ccc3c(=O)n(N4CCN(C)CC4)cnc3c2)cc2cn(C)nc12 [Compound 175]	> 10 µM	1 to 10 µM
Cc1cn2nc(-c3cc4ccn([C@H]5CCNC5)c(=O)c4cc3O)cc(C)c2n1 [Compound 641, 6-(2,8-dimethylimidazo[1,2-b]pyridazin-6-yl)-7-hydroxy-2-[(3S)-pyrrolidin-3-yl]isoquinolin-1-one]	1 to 10 µM	< 0.1 µM
Cc1cn2nc(-c3ccc4c(=O)n(C5CCNCC5)ccc4c3)cc(Oc3ccccc3F)c2n1 [Compound 544, 6-[8-(2-fluorophenoxy)-2-methyl-imidazo[1,2-b]pyridazin-6-yl]-2-(4-piperidyl) isoquinolin-1-one; hydrochloride]	< 0.1 µM	< 0.1 µM
Cc1cn2nc(-c3ccc4c(=O)n(C5CCNCC5)ccc4c3)cc(Oc3ccccc3)c2n1 [Compound 519, 6-(2-methyl-8-phenoxy-imidazo[1,2-b]pyridazin-6-yl)-2-(4-piperidyl)isoquinolin-1-one]	< 0.1 µM	< 0.1 µM
CNc1cc(-c2cc(C)c3nc(C)cn3n2)cc2ccn([C@@H]3CCNC3)c(=O)c12 [Compound 648, 6-(2,8-dimethylimidazo[1,2-b]pyridazin-6-yl)-8-(methylamino)-2-[(3R)-pyrrolidin-3-yl]isoquinolin-1-one]	> 10 µM	1 to 10 µM
CNC(=O)Cc1cc(-c2ccc3c(=O)n(C4CCNCC4)ccc3c2)nn2cc(C)nc12 [Compound 534, N-methyl-2-[2-methyl-6-[1-oxo-2-(4-piperidyl)-6-isoquinolyl]imidazo[1,2-b]pyridazin-8-yl]acetamide]	1 to 10 µM	0.1 to 1 µM
Cc1cn2nc(-c3ccc4c(=O)n(C5CCNCC5)ccc4c3)cc(Oc3cccnc3)c2n1 [Compound 550, 6-[2-methyl-8-(3-pyridyloxy)imidazo[1,2-b]pyridazin-6-yl]-2-(4-piperidyl)isoquinolin-1-one]	< 0.1 µM	< 0.1 µM

— patent US20250332173A1, “COMPOUNDS AND METHODS FOR MODULATING NUCLEIC ACID SPLICING” (REMIX THERAPEUTICS INC., priority 2021, published 2025)
